The source of these data is patent publication US12226405B2, “Compounds and compositions for inhibiting the activity of HIF2-alpha and their methods of use” (Novartis AG, priority 2020, dated 2025).

In assay [1] the test system is HIF2α-regulated expression of the endogenous target gene hEGLN3 in 786-O cells. As to the kind of experiment: Cellular iScript assay for HIF2α (quantitative RT-PCR of hEGLN3). As to conditions: Homo sapiens, 786-0, 48 hours incubation. Type of assay: cell-based, human. As for the experimental part: (§1) Stock solutions of compounds were prepared at a concentration of 10 mM in DMSO and stored at 4° C. Where necessary to afford a full dose-response curve, the stock solutions were pre-diluted in DMSO to 1,000-fold the desired reduced start concentration. On the day after cell seeding, eleven 2-fold serial dilutions of each compound were dispensed directly into the cell assay plates using either HP 300D non-contact Digital Dispenser (TECAN) or a ATS100 acoustic dispenser (EDC Biosystems).
Compound-mediated modulation of the HIF2α-regulated expression of the endogenous target gene hEGLN3 (OMIM: 606426), as well as beta-actin (OMIM: 102630) as a house-keeping control, was assess in 786-O cells (RRID CVCL_1051) using a quantitative RT-PCR approach. In short, 786-O cells were maintained in growth medium composed of DMEM (GIBCO #11995-065), 2 mM L-Glutamine (BioConcept #5-10K50-H), 1× Penicillin/Streptomycin (BioConcept #4-01F00-H), 10% fetal calf serum (Gibco #A31608-01), 1 mM Sodium pyruvate (BioConcept #5-60F00-H). Cells were seeded at 1,000 cells/20 μL/well into white-wall, clear-bottom 384-well plates (Greiner #781098) and incubated over night at 37° C. prior to addition of serial compound dilutions as described above. Following incubation for 48 hours at 37° C., medium supernatant was discarded and the plate blotted dry by inverting on a tissue. The same procedure was repeated following one wash with 20 μL phosphate-buffered saline. Following addition of 25 μL/well iScript sample preparation reagent (BioRad #170-8899) using a 16-channel Matrix pipette, the plate was incubated for 2 min at room temperature. 20 μL lysate supernatant was then removed and transferred to a new 384 well plate (Costar #3656) and diluted 1:3 by adding 5 μL of the lysate to 10 μL H2O using a Bravo liquid handler (Agilent). 2 μL of the diluted lysate was added to the 8 μL of a mastermix containing 5 μL iTaq Universal Probes One-step kit (BioRad #172-5141), 0.25 μL iScript reverse transcription supermix (BioRad #1708840), 0.25 μL 40×HEX-ZEN-labeled TaqMan probe for beta-actin (IDT #Hs.PT.39a.22214847: Probe 5′ HEX-TCA TCC ATG/ZEN/GTG AGC TGG CGG-3′ (SEQ ID NO: 2) Iowa Black FQ, Primer 1: ACA GAG CCT CGC CTT TG (SEQ ID NO: 3); Primer 2: CCT TGC ACA TGC CGG (SEQ ID NO: 4) AG), 0.25 μL, 40×FAM-ZEN-labeled TaqMan probe for hEGLN3 (IDT #Hs.PT.58.189348: Probe 5′ 6-FAM-TTT GGC TTC/ZEN/TGC CCT TTC TTC AGC-3′ (SEQ ID NO: 5) Iowa Black FQ, Primer 1: CACGGTCAGTCTTCAGTGAG (SEQ ID NO: 6); Primer 2: CGCAACCAGATATGCTATGACT (SEQ ID NO: 7)), 2.25 μL RNase-free water, prelaid in a 384 well plate (ABI #4309849) using a 16-channel Matrix pipette. The plate was sealed with a PCR-compatible optical film (MicroAmp, ABI #4360954) and centrifuged (1500 rpm, 5 min, +4° C.) to collect all reagents in the bottom of the well and to remove bubbles. The plate content was amplified on a 7900HT thermal cycler (ABI) using the following conditions: Step 1: 50° C. for 10 min, Step 2: 95° C. for 3 min, Step 3 (40×): 95° C. for 15 s, 60° C. for 1 min. ROX (reaction volume 10 μL) was used as a passive reference. Data were collected with manual adjustment of the Ct threshold (beta-actin: 0.046, hEGLN3: 0.06) and were analyzed using the 2^(−ΔΔCt) method. Thus, for each sample, the following values were calculated: 2^(−Ct)a for beta-actin, 2^(−Ct)e for EGLN3, and 2^(−ΔCt) calculated as (2^(−Ct)e/2^(−Ct)a). The mean 2^(−ΔCt) as well as the corresponding standard deviation was calculated for each sample. Taking the DMSO-treated sample as a reference, the 2^(−ΔΔCt) for each sample was calculated as follows: 2^(−ΔΔCt)=2^(−ΔCt)sample/(2^(−ΔCt)DMSO). After calculating differential expression as 2^(−ΔΔCt) for each sample, it was then expressed as a percentage (×100) to obtain a dose-response curve in % of DMSO control and IC50s were calculated using a four-parametric fit model.

Assay [2] relates to HIF2α-dependent transcription in 786-O-HRE-Luc cells. The experiment in a line: In vitro cellular hypoxia response element (HRE) reporter gene assay (RGA) for HIF2α. Type of assay: cell-based, human. As to conditions: Homo sapiens, 24 hours incubation. Here is the method:
as §1
The ability of compounds to inhibit HIF2α- and HIF1α-dependent transcription was assessed in 786-O-HRE-Luc and RCC4-HRE-Luc cells, respectively. The putative unselective inhibition of firefly luciferase activity or expression was assessed in 786-O-UB6-Luc and RCC4-UB6-Luc cells, respectively. The reporter lines were generated as follows: 786-O (RRID: CVCL_1051) and RCC4 (RRID: CVCL_0498) clear cell renal carcinoma cell lines were obtained from ATCC and Celeste Simon (University of Pennsylvania), respectively. Either cell line was transduced with a lentiviral vector in which the expression of a PEST-destabilized version of firefly-luciferase is under the control of either a minimal promoter coupled to four copies of a minimal hypoxia response element (HRE) sequence (pLenti 4×HRE Luc PEST), or a promoter from the house-keeping UBC gene (pLenti UB6 Luc PEST). In short, for the construction of the pLenti 4×HRE Luc PEST vector, 4×HRE DNA oligonucleotides were synthesized, annealed and cloned into pGL4.27 plasmid vector (Promega) predigested with NheI and HindIII restriction enzymes. The sequence of the two DNA oligonucleotides was as follows: NheI 4×HRE HindIII FWD: […] (SEQ ID NO: 8); NheI 4×HRE HindIII REV […] (SEQ ID NO: 9). The 4×HRE Luc PEST fragment was then PCRed from this plasmid with restriction enzyme sites NheI and XhoI at the two ends, and inserted into pLenti6/BLOCK iT DEST (Thermo Fisher Scientific) predigested with NheI and XhoI restriction enzymes. For the construction of the pLenti UB6 Luc PEST vector, the Luc PEST sequence was PCRed from pGL4.27 (Promega) using EcoRV and XhoI restriction enzymes at the two ends, and inserted into pLenti6/UBC/V5/DEST (Thermo Fisher Scientific) predigested with the same enzymes. 786-O and RCC4 cells (300,000 per well of a 6 well plate) were infected in the presence of 10 μg/ml polybrene with lentivirus harvested two days after transfection of HEK293-FT (ThermoFisher Scientific #R70007) cells (80% confluent in a 100 cm^2 dish) with a mix of 1.5 ml OptiMEM (ThermoFisher Scientific #31985062) containing 3 μg of the desired plasmids and 9 μl of ViralPower Packaging mix (ThermoFisher Scientific #K497500), and 1.5 ml OptiMEM containing 36 μl Lipofectamine 2000 (ThermoFisher Scientific #11668019). Successfully infected cells were selected using blasticidin (Gibco #A11139-03) at a final concentration of 5 μg/ml. The resulting stable cell lines were named 786-O pLenti 4×HRE Luc PEST (short: 786-O-HRE-Luc), 786-O pLenti UB6 Luc PEST (short: 786-O-UB6-Luc), RCC4 pLenti 4×HRE Luc PEST (short: RCC4-HRE-Luc) and RCC4 pLenti UB6 Luc PEST (short: RCC4-UB6-Luc). All 4 cell lines were maintained in growth medium composed of DMEM (GIBCO #11995-065), 2 mM L-Glutamine (BioConcept #5-10K50-H), 10% fetal calf serum (Gibco #A31608-01), 1× Penicillin/Streptomycin (BioConcept #4-01F00-H), 1 mM Sodium pyruvate (BioConcept #5-60F00-H) and 5 μg/ml blasticidin (Gibco #A11139-03) at 37° C. in a humidified 5% CO2 incubator.
For the reporter gene assay, the individual cell lines were seeded at 2,500 cells/20 μL/well into white-wall, clear-bottom 384-well plates (Greiner #781098) and incubated over night at 37° C. prior to addition of serial compound dilutions as described above. […]

Assay [3] concerns the target HIF2α PAS-B domain (236-350, biotinylated on the N-terminus) (Homo sapiens (Human), UniProt Q99814).
Method: The assay buffer contained 50 mM Tris-HCl pH7 (Sigma), 20 mM NaCl (Fluka), 0.02% BSA (Sigma), 0.005% Triton X-100 (Pierce) and 1 mM DTT (Fluka). After a 30 min incubation period, 5 μL Streptavidin PVT SPA Beads (Perkin Elmer) at 1.2 mg/mL, diluted in the buffer, were added.

HIF2α PAS-B domain (236-350, biotinylated on the N-terminus), sequence (Q99814 236-350): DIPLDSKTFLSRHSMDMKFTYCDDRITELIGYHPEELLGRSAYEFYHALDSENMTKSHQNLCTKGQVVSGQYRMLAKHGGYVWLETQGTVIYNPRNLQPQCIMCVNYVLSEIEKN

One may read the IC50 as the concentration needed to halve the response being measured. A lower IC50 goes with greater potency in that assay. As to `N#CC1=CN2C[C@@]3(CCSc4c(F)cccc43)N=C2C(OC(F)F)=C1` [Example 66, (S)-8-(difluoromethoxy)-8′-fluoro-3H-spiro[imidazo[1,2-a]pyridine-2,4′-thiochroman]-6-carbonitrile], the 50% inhibitory concentration (IC50) in assay [1] was 47 nM; in assay [2], 385 nM; in assay [3], not above 8 nM.
Taken in the same sequence, the figures for `O=C1c2c(ccc(Br)c2F)[C@@]2(C[C@H]1F)CN1C=C(C(F)(F)F)C=C(OC(F)F)C1=N2` [Example 9, (1′S)-6′-bromo-8-(difluoromethoxy)-3′,5′-difluoro-6-(trifluoromethyl)-2′H,3H-spiro[imidazo[1,2-a]pyridine-2,1′-naphthalen]-4′(3H′)-one] were 173 nM, 2210 nM and 15 nM.
Taken in the same sequence, the figures for `FC(F)OC1=CC(C(F)(F)F)=CN2C[C@@]3(CCCc4cc(Br)ccc43)N=C12` [Example 11, (S)-6′-bromo-8-(difluoromethoxy)-6-(trifluoromethyl)-3′,4′-dihydro-2′H,3H-spiro[imidazo[1,2-a]pyridine-2,1′-naphthalene]] were 33 nM, 89 nM and not above 3 nM.
Consider `N#CC1=CN2C[C@@]3(CCSc4c3ccc(F)c4F)N=C2C(OC(F)F)=C1` [Example 112, (S)-8-(difluoromethoxy)-7′,8′-difluoro-3H-spiro[imidazo[1,2-a]pyridine-2,4′-thiochromane]-6-carbonitrile], for which the IC50 in assay [1] was 41 nM; in assay [2], 116 nM; in assay [3], 7 nM.
With `N#Cc1ccc2c(c1)CCC[C@@]21CN2C=C(C(F)(F)F)C=C(OC(F)F)C2=N1` [Example 38, (S)-8-(difluoromethoxy)-6-(trifluoromethyl)-3′,4′-dihydro-2′H,3H-spiro[imidazo[1,2-a]pyridine-2,1′-naphthalene]-6′-carbonitrile], the half-maximal inhibitory concentration (IC50) in assay [1] turned out to be 84 nM; in assay [2], 322 nM; in assay [3], 12 nM.
For the compound `Fc1c(C(F)(F)F)ncc2c1SCC[C@@]21CN2C=C(C(F)(F)F)C=C(OC(F)F)C2=N1` [Example 67, (S)-8-(difluoromethoxy)-8′-fluoro-6,7′-bis(trifluoromethyl)-2′,3′-dihydro-3H-spiro[imidazo[1,2-a]pyridine-2,4′-thiopyrano[3,2-c]pyridine]], the half-inhibitory concentration (IC50) in assay [1] was 57 nM; in assay [2], 107 nM; in assay [3], 15 nM.
Consider `Fc1c(Br)ccc2c1OCC[C@@]21CN2C=C(Cl)C=C(OC(F)F)C2=N1` [Example 52, (S)-7-bromo-6′-chloro-8′-(difluoromethoxy)-8-fluoro-3′H-spiro[chroman-4,2′-imidazo[1,2-a]pyridine]], for which the IC50 in assay [1] worked out at 87 nM; in assay [2], 416 nM; in assay [3], 11 nM.
For `Fc1cccc2c1OC[C@H](F)[C@@]21CN2C=C(C(F)(F)F)C=C(OC(F)F)C2=N1` [Example 62, (2′S,3R)-8′-(difluoromethoxy)-3,8-difluoro-6′-(trifluoromethyl)-3′H-spiro[chroman-4,2′-imidazo[1,2-a]pyridine]], the results for the IC50 in assay [1], in assay [2] and in assay [3] were 102 nM, 484 nM and 13 nM, respectively.
On to `N#CC1=CN2C[C@@]3(CCCc4cc(F)ccc43)N=C2C(OC(F)F)=C1` [Example 35, (S)-8-(difluoromethoxy)-6′-fluoro-3′,4′-dihydro-2′H,3H-spiro[imidazo[1,2-a]pyridine-2,1′-naphthalene]-6-carbonitrile], for which the IC50 in assay [1] is 83 nM; in assay [2], 267 nM; in assay [3], 9 nM.
For the compound `Fc1ccc2c(c1F)OCCC[C@@]21CN2C=C(C(F)(F)F)C=C(OC(F)F)C2=N1` [Example 117, (S)-8′-(difluoromethoxy)-8,9-difluoro-6′-(trifluoromethyl)-3,4-dihydro-2H,3′H-spiro[benzo[b]oxepine-5,2′-imidazo[1,2-a]pyridine]], the IC50 is 24 nM in assay [1], 281 nM in assay [2] and not above 4 nM in assay [3].
